The text below walks through data of patent EP4483954A1 (Masarykova Univerzita, priority 2023, dated 2025).

Assay type in all cases: biochemical
Experiment [1] concerns the target T1, TRB2(h) (Homo sapiens, UniProt Q92519).
T1 construct: purchased Eurofins (KinaseProfiler)
T1 sequence (Q92519 1-343): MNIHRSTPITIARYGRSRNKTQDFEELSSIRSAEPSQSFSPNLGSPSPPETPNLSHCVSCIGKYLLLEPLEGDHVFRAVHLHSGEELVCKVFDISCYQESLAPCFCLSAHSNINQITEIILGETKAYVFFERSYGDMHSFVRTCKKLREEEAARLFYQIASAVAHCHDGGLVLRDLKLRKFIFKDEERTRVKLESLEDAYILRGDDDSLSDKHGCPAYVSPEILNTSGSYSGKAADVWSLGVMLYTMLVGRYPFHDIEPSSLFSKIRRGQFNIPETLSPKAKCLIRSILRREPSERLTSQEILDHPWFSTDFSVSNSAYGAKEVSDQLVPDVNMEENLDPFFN
Put plainly: radiometric kinase assay (KinaseProfiler, Eurofins), TRB2. The following applies: in vitro radiometric kinase assay, tested at 1 nM to 10 000 nM, no pre-incubation; read-out: inhibitory activities (IC50 values) TRB2. The protocol: (§1) The compounds were profiled in the radiometric assays (KinaseProfiler, Eurofins).
(§2) Briefly, kinases were diluted in the buffer shown below prior to addition to the reaction mix: • CDKL3, TAF1L: 20 mM Tris/HCl pH 8.5, 0.2 mM EDTA, 0.1% β-mercaptoethanol, 0.01% Brij-35, 5% glycerol, 1 mg/ml BSA; • Haspin: 15 mM MOPS, 0.75 mM EDTA, 0.0075% Brij-35, 3.75% Glycerol, 150 mM NaCl, 0.1% β-mercaptoethanol, 1 mg/mLBSA; • CDKL4, CLK2, PIM1, TRB2: […], 1 mM EDTA, 0.01% Brij-35, 5% Glycerol, 0.1% β-mercaptoethanol, 1 mg/mL BSA.
(§3) All compounds were prepared to 50x final assay concentration in 100% DMSO. This working stock of the compound was added to the assay well as the first component in the reaction, followed by the remaining components as detailed in the general assay protocols below. There was no pre-incubation step between the compound and the kinase prior to initiation of the reaction.
TRB2(h) was incubated with 8 mM MOPS pH 7.0, 0.2 mM EDTA, 250 µM RRRFRPASPLRGPPK (SEQ ID NO. 1), 10 mM magnesium acetate and γ-^33P-ATP (specific activity and concentration as required). The reaction was initiated by the addition of the Mg/ATP mix. After incubation for 120 minutes at room temperature, the reaction was stopped by the addition of phosphoric acid to a concentration of 0.5%. An aliquot of the stopped reaction was spotted onto a filter and washed four times for 4 minutes in 0.425% phosphoric acid and once in methanol prior to drying and scintillation counting.
(§4) Kinase activity data were expressed as the percent remaining kinase activity in tested samples compared to the vehicle (DMSO) reactions. The compounds were tested at the following concentrations: 1 nM, 3 nM, 10 nM, 30 nM, 100 nM, 300 nM, 1000 nM, 3000 nM, and 10 000 nM; IC50 values and curve fits were then obtained.

In experiment [2] the target is T2, CDKL3(h) (Homo sapiens, UniProt Q8IVW4).
T2 construct: purchased Eurofins (KinaseProfiler)
T2 sequence (Q8IVW4 whole entry): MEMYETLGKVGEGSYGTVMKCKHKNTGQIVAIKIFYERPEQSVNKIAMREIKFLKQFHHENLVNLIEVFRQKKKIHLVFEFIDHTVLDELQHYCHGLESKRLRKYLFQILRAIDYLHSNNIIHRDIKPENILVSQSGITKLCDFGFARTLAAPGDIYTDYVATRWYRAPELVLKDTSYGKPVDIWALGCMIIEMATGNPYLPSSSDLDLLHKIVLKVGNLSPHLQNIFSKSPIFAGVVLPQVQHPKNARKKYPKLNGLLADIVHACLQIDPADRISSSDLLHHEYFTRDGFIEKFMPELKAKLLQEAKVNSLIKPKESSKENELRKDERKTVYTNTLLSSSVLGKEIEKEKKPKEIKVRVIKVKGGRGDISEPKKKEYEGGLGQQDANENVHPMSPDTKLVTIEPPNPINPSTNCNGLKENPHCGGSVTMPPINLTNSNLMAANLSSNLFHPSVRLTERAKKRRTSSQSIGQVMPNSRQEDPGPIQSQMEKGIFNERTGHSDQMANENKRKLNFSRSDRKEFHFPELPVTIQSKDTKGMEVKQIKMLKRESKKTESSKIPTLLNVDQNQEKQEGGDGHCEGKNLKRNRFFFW
Put plainly: radiometric kinase assay (KinaseProfiler, Eurofins), CDKL3. The note with it: in vitro radiometric kinase assay, tested at 1 nM to 10 000 nM, no pre-incubation; read-out: inhibitory activities (IC50 values) CDKL3. The protocol: as §1, §2, §3
CDKL3(h) was incubated with 8 mM MOPS pH 7.0, 0.2 mM EDTA, 250 µM RRRFRPASPLRGPPK (SEQ ID NO. 1), 10 mM magnesium acetate and γ-^33P-ATP (specific activity and concentration as required). The reaction was initiated by the addition of the Mg/ATP mix. After incubation for 120 minutes at room temperature, the reaction was stopped by the addition of phosphoric acid to a concentration of 0.5%. An aliquot of the stopped reaction was spotted onto a filter and washed four times for 4 minutes in 0.425% phosphoric acid and once in methanol prior to drying and scintillation counting.
as §4

Experiment [3] concerns the target T3, CLK2 (h) (Homo sapiens, UniProt P49760).
T3 construct: purchased Eurofins (KinaseProfiler)
The experiment in a line: radiometric kinase assay (KinaseProfiler, Eurofins), CLK2. The note with it: in vitro radiometric kinase assay, tested at 1 nM to 10 000 nM, no pre-incubation; read-out: inhibitory activities (IC50 values) CLK2. The protocol: as §1, §2, §3
CLK2 (h) was incubated with 8 mM MOPS pH 7.0, 0.2 mM EDTA, 20 µM […](p)EDEEE (SEQ ID NO. 2), 10 mM magnesium acetate and γ-^33P-ATP (specific activity and concentration as required). The reaction was initiated by the addition of the Mg/ATP mix. After incubation for 40 minutes at room temperature, the reaction was stopped by the addition of phosphoric acid to a concentration of 0.5%. An aliquot of the reaction was then spotted onto a filter and washed four times for 4 minutes in 0.425% phosphoric acid and once in methanol prior to drying and scintillation counting.
as §4

The target in experiment [4] is T4, TAF1L(h) (Homo sapiens, UniProt Q8IZX4).
T4 construct: purchased Eurofins (KinaseProfiler)
T4 sequence (Q8IZX4 whole entry): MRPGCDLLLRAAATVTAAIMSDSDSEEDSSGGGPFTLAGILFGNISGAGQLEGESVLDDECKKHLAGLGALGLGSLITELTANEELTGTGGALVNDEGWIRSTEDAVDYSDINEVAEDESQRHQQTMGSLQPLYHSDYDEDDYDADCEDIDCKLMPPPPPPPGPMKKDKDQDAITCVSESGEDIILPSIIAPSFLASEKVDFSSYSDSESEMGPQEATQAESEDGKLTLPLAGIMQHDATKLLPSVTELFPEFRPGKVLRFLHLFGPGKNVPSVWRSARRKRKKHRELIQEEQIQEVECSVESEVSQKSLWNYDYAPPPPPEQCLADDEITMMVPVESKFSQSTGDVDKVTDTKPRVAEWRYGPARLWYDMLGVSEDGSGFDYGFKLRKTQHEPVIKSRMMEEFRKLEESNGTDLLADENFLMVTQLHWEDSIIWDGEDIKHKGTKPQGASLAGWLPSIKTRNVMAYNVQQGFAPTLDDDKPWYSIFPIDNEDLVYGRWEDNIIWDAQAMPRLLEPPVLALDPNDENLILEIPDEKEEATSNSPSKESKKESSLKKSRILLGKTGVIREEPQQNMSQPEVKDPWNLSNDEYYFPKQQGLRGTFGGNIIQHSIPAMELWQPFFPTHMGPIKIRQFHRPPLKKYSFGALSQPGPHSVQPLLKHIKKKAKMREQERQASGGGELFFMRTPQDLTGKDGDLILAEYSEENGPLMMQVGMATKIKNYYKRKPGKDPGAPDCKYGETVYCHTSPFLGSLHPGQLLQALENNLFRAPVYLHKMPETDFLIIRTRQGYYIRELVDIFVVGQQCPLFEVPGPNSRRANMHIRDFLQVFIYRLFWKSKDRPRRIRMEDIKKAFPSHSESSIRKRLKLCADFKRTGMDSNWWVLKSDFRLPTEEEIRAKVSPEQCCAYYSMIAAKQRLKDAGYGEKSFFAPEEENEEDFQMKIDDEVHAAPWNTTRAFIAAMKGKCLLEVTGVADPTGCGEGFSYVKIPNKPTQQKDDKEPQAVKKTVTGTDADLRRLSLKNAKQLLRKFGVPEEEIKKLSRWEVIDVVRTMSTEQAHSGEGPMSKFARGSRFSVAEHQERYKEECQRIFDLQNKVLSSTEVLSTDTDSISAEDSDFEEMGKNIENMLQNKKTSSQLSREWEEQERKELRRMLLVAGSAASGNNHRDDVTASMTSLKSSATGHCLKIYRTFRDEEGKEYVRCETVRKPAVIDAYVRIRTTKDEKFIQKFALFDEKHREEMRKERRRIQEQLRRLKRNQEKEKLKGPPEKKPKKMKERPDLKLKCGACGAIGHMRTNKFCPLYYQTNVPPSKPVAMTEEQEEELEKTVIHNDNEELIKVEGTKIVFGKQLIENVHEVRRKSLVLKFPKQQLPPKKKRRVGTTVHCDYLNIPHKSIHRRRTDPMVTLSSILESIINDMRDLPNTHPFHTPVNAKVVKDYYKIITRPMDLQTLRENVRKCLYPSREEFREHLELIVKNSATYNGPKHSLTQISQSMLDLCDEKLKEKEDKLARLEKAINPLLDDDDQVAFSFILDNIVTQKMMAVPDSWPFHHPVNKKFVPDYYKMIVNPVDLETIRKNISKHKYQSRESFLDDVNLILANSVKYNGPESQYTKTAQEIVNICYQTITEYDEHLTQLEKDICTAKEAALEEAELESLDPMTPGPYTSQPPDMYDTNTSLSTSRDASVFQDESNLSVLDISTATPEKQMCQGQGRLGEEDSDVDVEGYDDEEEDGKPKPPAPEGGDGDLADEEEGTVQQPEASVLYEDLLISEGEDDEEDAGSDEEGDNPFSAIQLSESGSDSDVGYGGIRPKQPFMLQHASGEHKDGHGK
The experiment in a line: radiometric kinase assay (KinaseProfiler, Eurofins), TAF1L. The following applies: in vitro radiometric kinase assay, tested at 1 nM to 10 000 nM, no pre-incubation; read-out: inhibitory activities (IC50 values) TAF1L. The protocol: as §1, §2, §3
TAF1L(h) was incubated with 20 mM Tris/HCl pH 8.5, 0.2 mM EDTA, 250 µM RRRFRPASPLRGPPK (SEQ ID NO. 1), 10 mM magnesium acetate and γ-^33P-ATP (specific activity and concentration as required). The reaction was initiated by the addition of the Mg/ATP mix. After incubation for 120 minutes at room temperature, the reaction was stopped by the addition of phosphoric acid to a concentration of 0.5%. An aliquot of the stopped reaction was spotted onto a filter and washed four times for 4 minutes in 0.425% phosphoric acid and once in methanol prior to drying and scintillation counting.
as §4

The target of experiment [5] is T5, CDKL4(h) (Homo sapiens, UniProt Q5MAI5).
T5 construct: purchased Eurofins (KinaseProfiler)
T5 sequence (Q5MAI5 whole entry): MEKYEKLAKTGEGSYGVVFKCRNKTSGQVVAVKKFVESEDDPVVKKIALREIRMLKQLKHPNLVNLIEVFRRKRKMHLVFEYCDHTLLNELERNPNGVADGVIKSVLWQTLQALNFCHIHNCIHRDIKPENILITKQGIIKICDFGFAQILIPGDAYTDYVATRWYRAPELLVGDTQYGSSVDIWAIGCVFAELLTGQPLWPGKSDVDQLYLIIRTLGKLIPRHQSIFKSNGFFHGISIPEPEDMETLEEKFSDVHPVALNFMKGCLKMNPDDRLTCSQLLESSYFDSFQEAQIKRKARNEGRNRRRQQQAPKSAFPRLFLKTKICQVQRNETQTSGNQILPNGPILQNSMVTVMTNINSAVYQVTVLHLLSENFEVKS
Put plainly: radiometric kinase assay (KinaseProfiler, Eurofins), CDKL4. The following applies: in vitro radiometric kinase assay, tested at 1 nM to 10 000 nM, no pre-incubation; read-out: inhibitory activities (IC50 values) CDKL4. The protocol: as §1, §2, §3
CDKL4(h) was incubated with 8 mM MOPS pH 7.0, 0.2 mM EDTA, 250 µM RRRFRPASPLRGPPK (SEQ ID NO. 1), 10 mM magnesium acetate and γ-^33P-ATP (specific activity and concentration as required). The reaction was initiated by the addition of the Mg/ATP mix. After incubation for 120 minutes at room temperature, the reaction was stopped by the addition of phosphoric acid to a concentration of 0.5%. An aliquot of the stopped reaction was spotted onto a filter and washed four times for 4 minutes in 0.425% phosphoric acid and once in methanol prior to drying and scintillation counting.
as §4

T3 sequence (P49760 whole entry): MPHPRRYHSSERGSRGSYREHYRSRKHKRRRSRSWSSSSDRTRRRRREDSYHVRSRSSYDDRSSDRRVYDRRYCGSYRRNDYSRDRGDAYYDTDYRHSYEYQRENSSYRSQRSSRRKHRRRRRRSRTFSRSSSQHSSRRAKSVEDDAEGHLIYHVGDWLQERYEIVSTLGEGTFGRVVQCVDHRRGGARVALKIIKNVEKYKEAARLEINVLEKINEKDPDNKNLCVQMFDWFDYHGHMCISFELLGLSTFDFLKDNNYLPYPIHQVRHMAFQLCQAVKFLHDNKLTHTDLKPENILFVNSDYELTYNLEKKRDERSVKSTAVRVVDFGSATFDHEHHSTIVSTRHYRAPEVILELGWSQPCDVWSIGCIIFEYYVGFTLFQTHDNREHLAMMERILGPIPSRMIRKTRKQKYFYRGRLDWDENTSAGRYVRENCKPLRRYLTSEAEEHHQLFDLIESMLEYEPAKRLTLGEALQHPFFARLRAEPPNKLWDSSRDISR

The term IC50 denotes the concentration needed to halve the response being measured. `Cn1ncc(-c2ccc3scc(-c4ccncc4)c3n2)c1CC1CC1` [Preparative Example 82, 5-(5-(cyclopropylmethyl)-1-methyl-1H-pyrazol-4-yl)-3-(pyridin-4-yl)thieno[3,2-b]pyridine]: the half-maximal inhibitory concentration (IC50) in experiment [1] was in the range of 0.1 to 0.499 µM; in experiment [2] it was 0.5 to 3 µM; in experiment [3] it was 0.5 to 3 µM; in experiment [4], 0.5 to 3 µM; in experiment [5], 0.5 to 3 µM.
Take `Cn1cc(-c2ccc3scc(-c4ccnc(CN)c4)c3n2)cn1` [Preparative Example 28, (4-(5-(1-methyl-1H-pyrazol-4-yl)thieno[3,2-b]pyridin-3-yl)pyridin-2-yl)methanamine]: the IC50 fell in the range of 0.5 to 3 µM in experiment [1]; 0.5 to 3 µM in experiment [2]; 3 to 10 µM in experiment [3]; 0.5 to 3 µM in experiment [4]; 0.5 to 3 µM in experiment [5].
Consider `Cn1cc(-c2ccc3scc(-c4ccncc4C#N)c3n2)cn1` [Preparative Example 34, 4-(5-(1-methyl-1H-pyrazol-4-yl)thieno[3,2-b]pyridin-3-yl)nicotino-nitrile], for which the IC50 in experiment [1] was in the range of 3 to 10 µM; in experiment [2] it was 0.5 to 3 µM; in experiment [3] it was 3 to 10 µM; in experiment [4], 0.5 to 3 µM; in experiment [5] it was 3 to 10 µM.
Consider `Cc1cc2scc(-c3ccncc3)c2nc1-c1ccn(C)n1` [Preparative Example 151, 6-methyl-5-(1-methyl-1H-pyrazol-3-yl)-3-(pyridin-4-yl)thieno[3,2-b]pyridine], for which the IC50 in experiment [1], in experiment [2], in experiment [3], in experiment [4] and in experiment [5] was 3 to 10 µM each time.
Take `Cn1cc(-c2ccc3scc(-c4ccccc4)c3n2)cn1` [Preparative Example 2, 5-(1-methyl-1H-pyrazol-4-yl)-3-phenylthieno[3,2-b]pyridine]: the IC50 lay within 0.5 to 3 µM in experiment [1]; 0.1 to 0.499 µM in experiment [2]; 3 to 10 µM in experiment [3]; 0.1 to 0.499 µM in experiment [4]; 0.1 to 0.499 µM in experiment [5].
Consider `Cc1sc2ccc(-c3cnn(C)c3)nc2c1-c1ccncc1` [Preparative Example 142, 2-methyl-5-(1-methyl-1H-pyrazol-4-yl)-3-(pyridin-4-yl)thieno[3,2-b]pyridine], for which the IC50 lay within 0.5 to 3 µM in experiment [1]; 0.5 to 3 µM in experiment [2]; 3 to 10 µM in experiment [3]; 0.5 to 3 µM in experiment [4]; 0.5 to 3 µM in experiment [5].
Consider `Cn1cc(-c2ccc3scc(-c4ccc5ncnn5c4)c3n2)cn1` [Preparative Example 53, 3-([1,2,4]-triazolo[1,5-a]pyridin-6-yl)-5-(1-methyl-1H-pyrazol-4-yl)thieno[3,2-b]pyridine], for which the IC50 lay in the range of 0.02 to 0.099 µM in experiment [1]; 0.1 to 0.499 µM in experiment [2]; 0.5 to 3 µM in experiment [3]; 0.1 to 0.499 µM in experiment [4]; 0.1 to 0.499 µM in experiment [5].
As for `c1ccc(-c2csc3ccc(-c4cnoc4)nc23)cc1` [Preparative Example 124, 4-(3-phenylthieno[3,2-b]pyridin-5-yl)isoxazole], the half-maximal inhibitory concentration (IC50) in experiment [1], in experiment [2], in experiment [3], in experiment [4] and in experiment [5] was 3 to 10 µM in each case.
On to `Cn1cc(-c2ccc3scc(-c4ccncc4)c3n2)cn1` [Preparative Example 13, 5-(1-methyl-1H-pyrazol-4-yl)-3-(pyridin-4-yl)thieno[3,2-b]pyridine], for which the 50% inhibitory concentration (IC50) fell in the range of 0.5 to 3 µM in experiment [1]; 0.1 to 0.499 µM in experiment [2]; 3 to 10 µM in experiment [3]; 0.1 to 0.499 µM in experiment [4]; 0.1 to 0.499 µM in experiment [5].
As for `Cn1cc(-c2ccc3scc(C4=CCNCC4)c3n2)cn1` [Preparative Example 9, 5-(1-methyl-1H-pyrazol-4-yl)-3-(1,2,3,6-tetrahydropyridin-4-yl)-thieno[3.2-b]pyridine], the IC50 was in the range of 3 to 10 µM in experiment [1]; 0.5 to 3 µM in experiment [2]; 3 to 10 µM in experiment [3]; 0.5 to 3 µM in experiment [4]; 0.5 to 3 µM in experiment [5].
